In brackets after ≈: the same amount, converted by molar mass. Activity calls are given as the source filed them. No cut-off for these calls is given here.
Tests used:
RAW264.7 [1] = experiment: Antiinflammatory activity in LPS-stimulated mouse RAW264.7 cells assessed as reduction in COX2 expression at 120 uM co-incubated with LPS for 24 hrs by RT-PCR method relative to untreated control; format: functional
RAW264.7 [2] = experiment: Antiinflammatory activity in LPS-stimulated mouse RAW264.7 cells assessed as reduction in iNOS expression at 80 uM co-incubated with LPS for 24 hrs by RT-PCR method relative to untreated control; format: functional
RAW264.7 [3] = experiment: Antiinflammatory activity in LPS-stimulated mouse RAW264.7 cells assessed as reduction in iNOS expression at 40 uM co-incubated with LPS for 24 hrs by RT-PCR method relative to untreated control; format: functional
[4] = Cytotoxicity against LPS-stimulated mouse RAW264.7 cells assessed as cell viability at 80 uM after 24 hrs by MTT assay (reference value: 100%); format: cell-based; details: LPS-stimulated RAW264.7 cells, read-out: Activity
RAW264.7 [5] = experiment: Antiinflammatory activity in LPS-stimulated mouse RAW264.7 cells assessed as reduction in IL6 expression at 120 uM co-incubated with LPS for 24 hrs by RT-PCR method relative to untreated control; format: functional
RAW264.7 [6] = experiment: Antiinflammatory activity in LPS-stimulated mouse RAW264.7 cells assessed as reduction in COX2 expression at 40 uM co-incubated with LPS for 24 hrs by RT-PCR method relative to untreated control; format: functional
RAW264.7 [7] = experiment: Antiinflammatory activity in LPS-stimulated mouse RAW264.7 cells assessed as reduction in TNFalpha expression at 120 uM co-incubated with LPS for 24 hrs by RT-PCR method relative to untreated control; format: functional
RAW264.7 [8] = experiment: Antiinflammatory activity in LPS-stimulated mouse RAW264.7 cells assessed as reduction in iNOS expression co-incubated with LPS for 24 hrs by RT-PCR method relative to untreated control; format: functional, cell-based
RAW264.7 [9] = experiment: Antiinflammatory activity in LPS-stimulated mouse RAW264.7 cells assessed as reduction in IL6 level at 40 uM co-incubated with LPS for 24 hrs by ELISA method; format: functional, cell-based
RAW264.7 [10] = experiment: Antiinflammatory activity in LPS-stimulated mouse RAW264.7 cells assessed as reduction in nitric oxide production at 40 uM after 24 hrs by Griess method based ELISA (reference value: 52.4 +/- 0.9 uM); format: functional
RAW264.7 [11] = experiment: Antiinflammatory activity in LPS-stimulated mouse RAW264.7 cells assessed as reduction in TNFalpha expression at 40 uM co-incubated with LPS for 24 hrs by RT-PCR method relative to untreated control; format: functional
RAW264.7 [12] = experiment: Antiinflammatory activity in LPS-stimulated mouse RAW264.7 cells assessed as reduction in iNOS expression at 120 uM co-incubated with LPS for 24 hrs by RT-PCR method relative to untreated control; format: functional
RAW264.7 [13] = experiment: Antiinflammatory activity in LPS-stimulated mouse RAW264.7 cells assessed as reduction in TNFalpha expression at 80 uM co-incubated with LPS for 24 hrs by RT-PCR method relative to untreated control; format: functional
RAW264.7 [14] = experiment: Antiinflammatory activity in LPS-stimulated mouse RAW264.7 cells assessed as reduction in COX2 expression at 80 uM co-incubated with LPS for 24 hrs by RT-PCR method relative to untreated control; format: functional
RAW264.7 [15] = experiment: Antiinflammatory activity in LPS-stimulated mouse RAW264.7 cells assessed as reduction in IL6 expression at 80 uM co-incubated with LPS for 24 hrs by RT-PCR method relative to untreated control; format: functional
RAW264.7 [16] = experiment: Antiinflammatory activity in LPS-stimulated mouse RAW264.7 cells assessed as reduction in nitric oxide production after 24 hrs by Griess method based ELISA; format: functional, cell-based; details: RAW264.7, 24 h
[17] = Cytotoxicity against LPS-stimulated mouse RAW264.7 cells assessed as cell viability at 120 uM after 24 hrs by MTT assay (reference value: 100%); format: cell-based; details: LPS-stimulated RAW264.7 cells, read-out: Activity
RAW264.7 [18] = experiment: Antiinflammatory activity in LPS-stimulated mouse RAW264.7 cells assessed as reduction in IL-1beta expression at 40 uM co-incubated with LPS for 24 hrs by RT-PCR method relative to untreated control; format: functional
RAW264.7 [19] = experiment: Antiinflammatory activity in LPS-stimulated mouse RAW264.7 cells assessed as reduction in nitric oxide production at 120 uM after 24 hrs by Griess method based ELISA (reference value: 52.4 +/- 0.9 uM); format: functional
RAW264.7 [20] = experiment: Antiinflammatory activity in LPS-stimulated mouse RAW264.7 cells assessed as reduction in IL6 expression at 40 uM co-incubated with LPS for 24 hrs by RT-PCR method relative to untreated control; format: functional
[21] = Cytotoxicity against LPS-stimulated mouse RAW264.7 cells assessed as cell viability at 40 uM after 24 hrs by MTT assay (reference value: 100%); format: cell-based; details: LPS-stimulated RAW264.7 cells, read-out: Activity
RAW264.7 [22] = experiment: Antiinflammatory activity in LPS-stimulated mouse RAW264.7 cells assessed as reduction in IL-1beta expression at 80 uM co-incubated with LPS for 24 hrs by RT-PCR method relative to untreated control; format: functional
RAW264.7 [23] = experiment: Antiinflammatory activity in LPS-stimulated mouse RAW264.7 cells assessed as reduction in nitric oxide production at 80 uM after 24 hrs by Griess method based ELISA (reference value: 52.4 +/- 0.9 uM); format: functional
RAW264.7 [24] = experiment: Induction of iNOS mRNA expression in LPS-non-stimulated mouse RAW264.7 cells by RT-PCR method; format: cell-based
RAW264.7 [25] = experiment: Antiinflammatory activity in LPS-stimulated mouse RAW264.7 cells assessed as reduction in IL-1beta expression at 120 uM co-incubated with LPS for 24 hrs by RT-PCR method relative to untreated control; format: functional

**Q.** With `CC(C)=CCC[C@@H](C)[C@H]1CC[C@@]2(C)[C@@H]3CC=C4C(C)(C)[C@@H](O[C@@H]5O[C@H](CO[C@@H]6O[C@H](CO[C@@H]7O[C@H](CO)[C@@H](O)[C@H](O)[C@H]7O)[C@@H](O)[C@H](O)[C@H]6O)[C@@H](O)[C@H](O)[C@H]5O)CC[C@]4(C)[C@H]3CC[C@]12C` as the compound, how does the “fold change (FC)” value (RAW264.7 [1]) read?
**A.** The value was 0.4.

**Q.** What about the “fold change (FC)” value (RAW264.7 [2]) of the same compound?
**A.** Its value is 1.1.

**Q.** What about the “fold change (FC)” value (RAW264.7 [3]) of the same compound?
**A.** The value was 1.

**Q.** And the viability at 24 h, 80 µM [4]?
**A.** Its viability at 24 h, 80 µM is 145%.

**Q.** And the “fold change (FC)” value (RAW264.7 [5])?
**A.** Its value is 0.6.

**Q.** What about the “fold change (FC)” value (RAW264.7 [6]) of the same compound?
**A.** The value was 0.7.

**Q.** What about the “fold change (FC)” value (RAW264.7 [7]) of the same compound?
**A.** Its value is 0.5.

**Q.** What about the inhibition (RAW264.7 [8]) of the same compound?
**A.** The inhibition was “Dose-dependent effect”.

**Q.** What about the inhibition (RAW264.7 [9]) of the same compound?
**A.** The inhibition was “Active”.

**Q.** What about the Activity (RAW264.7 [10]) of the same compound?
**A.** Its Activity is 40.9 µM.

**Q.** And the “fold change (FC)” value (RAW264.7 [11])?
**A.** Its value is 0.9.

**Q.** What about the “fold change (FC)” value (RAW264.7 [12]) of the same compound?
**A.** The value was 0.6.

**Q.** What about the “fold change (FC)” value (RAW264.7 [13]) of the same compound?
**A.** The value was 1.

**Q.** What about the “fold change (FC)” value (RAW264.7 [14]) of the same compound?
**A.** Its value is 0.8.

**Q.** And the “fold change (FC)” value (RAW264.7 [15])?
**A.** The value was 1.

**Q.** And the IC50 (RAW264.7 [16])?
**A.** The IC50 was 86.7 µg/mL (≈ 94.9 µM).

**Q.** What about the viability at 24 h, 120 µM [17] of the same compound?
**A.** Its viability at 24 h, 120 µM is 155%.

**Q.** And the “fold change (FC)” value (RAW264.7 [18])?
**A.** The value was 1.

**Q.** What about the Activity (RAW264.7 [19]) of the same compound?
**A.** The Activity was 19.8 µM.

**Q.** And the “fold change (FC)” value (RAW264.7 [20])?
**A.** Its value is 0.9.

**Q.** What about the viability at 24 h, 40 µM [21] of the same compound?
**A.** The viability at 24 h, 40 µM was 121%.

**Q.** And the “fold change (FC)” value (RAW264.7 [22])?
**A.** The value was 1.1.

**Q.** What about the Activity (RAW264.7 [23]) of the same compound?
**A.** Its Activity is 27.5 µM.

**Q.** And the Activity (RAW264.7 [24])?
**A.** The Activity was “Non-toxic”.

**Q.** What about the “fold change (FC)” value (RAW264.7 [25]) of the same compound?
**A.** The value was 0.5.
